Test results reported in article PMC9220351, “Evaluation of a Conformationally Constrained Indole Carboxamide as a Potential Efflux Pump Inhibitor in Pseudomonas aeruginosa” (Antibiotics, 2022).
Where two headings read alike, the source gives them in different places.

Tests used:
[1] = system: 209 P. aeruginosa clinical isolates from three US hospitals; assay: Susceptibility study, Micromyx panel; type: cell-based, Pseudomonas aeruginosa; details: n: 209
Description: (§1) First, 209 clinical isolates of P. aeruginosa were collected, unbiased of susceptibility, from three US hospitals by Micromyx (now part of Microbiologics; Kalamazoo, MI, USA). IHMA (Monthey, Switzerland) collected 300 P. aeruginosa clinical isolates, also unbiased of susceptibility, from the following 63 countries: Argentina, Australia, Belgium, Brazil, Canada, Chile, Colombia, Costa Rica, Croatia, Czech Republic, Denmark, Dominican Republic, Ecuador, France, Georgia, Germany, Greece, Guatemala, Hong Kong, Hungary, India, Ireland, Israel, Italy, Japan, Jordan, Kazakhstan, Kenya, South Korea, Kuwait, Latvia, Lebanon, Lithuania, Malaysia, Mexico, Morocco, Netherlands, New Zealand, Nigeria, Panama, Philippines, Poland, Portugal, Puerto Rico, Qatar, Romania, Russia, Saudi Arabia, Serbia, Slovenia, South Africa, Spain, Sweden, Switzerland, Taiwan, Thailand, Tunisia, Turkey, Ukraine, United Kingdom, United States, Venezuela, and Vietnam. Isolates came from the following types of infection: genitourinary (urine), gastrointestinal (stomach), gastrointestinal (pancreas), […] (wound), respiratory (sputum), […] (blood), respiratory (bronchoalveolar lavage), […] (burn), respiratory (endotracheal aspirate), bodily fluids (abscess/pus), […] (impetiginous lesions), gastrointestinal (abscess) and respiratory (bronchial brushing). CF patients were not excluded.
(§2) MIC assays were performed as described previously.

[2] = system: 300 P. aeruginosa clinical isolates from 63 countries; assay: Susceptibility study, IHMA panel; type: cell-based, Pseudomonas aeruginosa; details: n: 300
Description: as §1, §2

P. aeruginosa ATCC 27853 = assay: MIC / antibiotic potentiation assay, wild-type strain; details: for MIC: Pseudomonas aeruginosa
[3] = system: 34 MDR P. aeruginosa clinical isolates (CDC & FDA AR Isolate Bank); assay: microbe, parasite or virus in culture; type: cell-based, Pseudomonas aeruginosa; details: for MIC: Pseudomonas aeruginosa, alone or + labelled EPI […] (TXA09155 head: 50 µg/mL)
Description: P. aeruginosa ATCC 27853 was obtained from the American Type Culture Collection (ATCC; Manassas, VA, USA). P. aeruginosa multidrug-resistant isolates were obtained from the CDC and FDA Antibiotic Resistance Isolate Bank (Atlanta, GA, USA). P. aeruginosa DA7232 (gyrA-T83I, parC-S80L) was a kind gift from Prof. Dan I. Andersson, Uppsala University, Uppsala, Sweden, and has been characterized elsewhere. P. aeruginosa strains K767 (WT), K1455 (mexAB-oprM overexpressed), K2415 (mexXY-oprM overexpressed), and K3698 (oprM∆) were obtained from Prof. Keith Poole, Queen’s University, Kingston, Ontario, Canada and have been characterized elsewhere. Bacterial cells were grown in cation-adjusted Mueller Hinton (CAMH) media, brain heart infusion broth (BHI), or tryptic soy agar (TSA) plates were all obtained from Becton, Dickinson, and Company (BD; Franklin Lakes, NJ, USA). […] Azithromycin was purchased from Tokyo Chemical Industry (Portland, OR, USA). […] Ethidium bromide (EtBr) and glucose were purchased from VWR (Radnor, PA, USA). MC-04,124 and TXA01182 were synthesized at TAXIS Pharmaceuticals. Carbonyl cyanide 3-chlorophenylhydrazone (CCCP) was purchased from Enzo Life Sciences (Farmingdale, NY, USA). DiOC2 (3) and propidium iodide were obtained from Thermo Fisher Scientific (Waltham, MA, USA).
as §2

[4] = in combination TXA09155 fixed […]
[5] = n: 34, in combination EPI fixed […]

## C[C@H]1COc2c(N3CCN(C)CC3)c(F)cc3c(=O)c(C(=O)O)cn1c23 [Levofloxacin]
[1]; LVX ≤1S 2I ≥4R
  % R (percent resistant per breakpoints): 32%
[1]; concentration 0.5 µg/ml
  Cumulative Susceptibility % Strains at 0.5: 47%
[1]; concentration 1 µg/ml
  Cumulative Susceptibility % Strains at 1: 58%
[1]; concentration 2 µg/ml
  Cumulative Susceptibility % Strains at 2: 68%
[1]; concentration 4 µg/ml
  Cumulative Susceptibility % Strains at 4: 78%
[1]; concentration 8 µg/ml
  Cumulative Susceptibility % Strains at 8: 86%
[1]; concentration 16 µg/ml
  Cumulative Susceptibility % Strains at 16: 93%
[1]; concentration 32 µg/ml
  Cumulative Susceptibility % Strains at 32: 98%
[1]; concentration >32 µg/ml
  Cumulative Susceptibility % Strains at >32: 100%
[1]; concentration column 0.12 µg/ml
  Cumulative Susceptibility % Strains at 0.12: 2%
[1]; [4]
  MIC50: 1 µg/mL
  MIC90: 16 µg/mL
[2]; LVX ≤1S 2I ≥4R
  % R (percent resistant per breakpoints): 22%
[2]; concentration 0.5 µg/ml
  Cumulative Susceptibility % Strains at 0.5: 60%
[2]; concentration 1 µg/ml
  Cumulative Susceptibility % Strains at 1: 69%
[2]; concentration 2 µg/ml
  Cumulative Susceptibility % Strains at 2: 78%
[2]; concentration 4 µg/ml
  Cumulative Susceptibility % Strains at 4: 83%
[2]; concentration 8 µg/ml
  Cumulative Susceptibility % Strains at 8: 84%
[2]; concentration 16 µg/ml
  Cumulative Susceptibility % Strains at 16: 89%
[2]; concentration 32 µg/ml
  Cumulative Susceptibility % Strains at 32: 95%
[2]; concentration >32 µg/ml
  Cumulative Susceptibility % Strains at >32: 100%
[2]; concentration column 0.06 µg/ml
  Cumulative Susceptibility % Strains at 0.06: 1%
[2]; [4]
  MIC50: 0.5 µg/mL
  MIC90: 32 µg/mL
P. aeruginosa ATCC 27853; ATCC27853, read-out: Antibiotic MIC in Presence of TXA09155 at a Concentration of 0
  MIC: 1 µg/mL
P. aeruginosa ATCC 27853; ATCC27853, read-out: MICs, Lack of EPI
  MIC: 1 µg/mL
P. aeruginosa ATCC 27853; TXA09155 3.13 μg/mL
  Antibiotic MIC in Presence of TXA09155 at a Concentration of 3.13: 1 µg/mL
P. aeruginosa ATCC 27853; TXA09155 25 μg/mL
  Antibiotic MIC in Presence of TXA09155 at a Concentration of 25: 0.063 µg/mL
[3]; read-out: Levofloxacin MIC, strain AR-0229
  MIC: 64 µg/mL
[3]; read-out: Levofloxacin MIC, strain AR-0230
  MIC: 64 µg/mL
[3]; read-out: Levofloxacin MIC, strain AR-0231
  MIC: 64 µg/mL
[3]; read-out: Levofloxacin MIC, strain AR-0232
  MIC: 8 µg/mL
[3]; read-out: Levofloxacin MIC, strain AR-0233
  MIC: 4 µg/mL
[3]; read-out: Levofloxacin MIC, strain AR-0234
  MIC: 8 µg/mL
[3]; read-out: Levofloxacin MIC, strain AR-0236
  MIC: 32 µg/mL
[3]; read-out: Levofloxacin MIC, strain AR-0239
  MIC: 64 µg/mL
[3]; read-out: Levofloxacin MIC, strain AR-0240
  MIC: 128 µg/mL
[3]; read-out: Levofloxacin MIC, strain AR-0241
  MIC: 64 µg/mL
[3]; read-out: Levofloxacin MIC, strain AR-0242
  MIC: 16 µg/mL
[3]; read-out: Levofloxacin MIC, strain AR-0244
  MIC: 128 µg/mL
[3]; read-out: Levofloxacin MIC, strain AR-0245
  MIC: 128 µg/mL
[3]; read-out: Levofloxacin MIC, strain AR-0246
  MIC: 64 µg/mL
[3]; read-out: Levofloxacin MIC, strain AR-0247
  MIC: 2 µg/mL
[3]; read-out: Levofloxacin MIC, strain AR-0248
  MIC: 16 µg/mL
[3]; read-out: Levofloxacin MIC, strain AR-0249
  MIC: 64 µg/mL
[3]; read-out: Levofloxacin MIC, strain AR-0250
  MIC: 64 µg/mL
[3]; read-out: Levofloxacin MIC, strain AR-0252
  MIC: 32 µg/mL
[3]; read-out: Levofloxacin MIC, strain AR-0253
  MIC: 2 µg/mL
[3]; read-out: Levofloxacin MIC, strain AR-0256
  MIC: 0.5 µg/mL
[3]; read-out: Levofloxacin MIC, strain AR-0258
  MIC: 0.5 µg/mL
[3]; read-out: Levofloxacin MIC, strain AR-0259
  MIC: 0.5 µg/mL
[3]; read-out: Levofloxacin MIC, strain AR-0260
  MIC: 64 µg/mL
[3]; read-out: Levofloxacin MIC, strain AR-0261
  MIC: 8 µg/mL
[3]; read-out: Levofloxacin MIC, strain AR-0262
  MIC: 4 µg/mL
[3]; read-out: Levofloxacin MIC, strain AR-0264
  MIC: 32 µg/mL
[3]; read-out: Levofloxacin MIC, strain AR-0265
  MIC: 64 µg/mL
[3]; read-out: Levofloxacin MIC, strain AR-0266
  MIC: 32 µg/mL
[3]; read-out: Levofloxacin MIC, strain AR-0267
  MIC: 32 µg/mL
[3]; read-out: Levofloxacin MIC, strain AR-0269
  MIC: 32 µg/mL
[3]; read-out: Levofloxacin MIC, strain AR-0270
  MIC: 32 µg/mL
[3]; read-out: Levofloxacin MIC, strain AR-0271
  MIC: 32 µg/mL
[3]; read-out: Levofloxacin MIC, strain AR-0272
  MIC: 16 µg/mL
[3]; concentration 0.5 µg/ml, n: 34
  Cumulative Susceptibility % Strains at 0.5: 9%
[3]; concentration 1 µg/ml, n: 34
  Cumulative Susceptibility % Strains at 1: 9%
[3]; concentration 2 µg/ml, n: 34
  Cumulative Susceptibility % Strains at 2: 15%
[3]; concentration 4 µg/ml, n: 34
  Cumulative Susceptibility % Strains at 4: 21%
[3]; concentration 8 µg/ml, n: 34
  Cumulative Susceptibility % Strains at 8: 29%
[3]; concentration 16 µg/ml, n: 34
  Cumulative Susceptibility % Strains at 16: 38%
[3]; concentration 32 µg/ml, n: 34
  Cumulative Susceptibility % Strains at 32: 62%
[3]; concentration column 0.06 µg/ml, n: 34
  Cumulative Susceptibility % Strains at 0.06: 0%
[3]; concentration column 64 µg/ml, n: 34
  Cumulative Susceptibility % Strains at 64: 91%
[3]; concentration column 128 µg/ml, n: 34
  Cumulative Susceptibility % Strains at 128: 100%
[3]; concentration column ≤0.03 µg/ml, n: 34
  Cumulative Susceptibility % Strains at ≤0.03: 0%
[3]; [5]
  MIC50: 32 µg/mL
  MIC90: 64 µg/mL
  MIC Range: 0.5 to 128 µg/mL
[3]; n: 34, in combination EPI fixed […], listed as LVX
  MIC Range: 0.5 to 128 µg/mL
